Measured values taken from ChEMBL document CHEMBL5518178 (Eur J Med Chem, 2024).
The source made the active and inactive calls. No cut-off for these calls is given here.

How the values were obtained:
MGC-803 [1] = experiment: Antiproliferative activity against human MGC-803 cells assessed as increase in nuclear concentration at 10 to 40 nmol/L incubated for 48 hrs by DAPI staining based fluorescence microscopic analysis; type: functional, cell-based; settings: dose 10-40 nmol/L
MGC-803 [2] = experiment: Induction of apoptosis in human MGC-803 cells assessed as necrotic cells at 40 nmol/L incubated for 48 hrs by Annexin V-FITC/propidium iodide staining based flow cytometer analysis (reference value: 0.32 %); type: functional
MGC-803 [3] = experiment: Induction of apoptosis in human MGC-803 cells assessed as early apoptotic cells at 40 nmol/L incubated for 48 hrs by Annexin V-FITC/propidium iodide staining based flow cytometer analysis (reference value: 4.38 %); type: functional
MGC-803 [4] = experiment: Antiproliferative activity against human MGC-803 cells assessed as decrease in cell damage at 10 to 40 nmol/L incubated for 48 hrs by bright field microscopic analysis; type: functional, cell-based; settings: dose 10-40 nmol/L
Tubulin (Homo sapiens) [5] = biological target: T1, Tubulin (Homo sapiens) (UniProt P68371+Q9H4B7+P0DPH7+P68366+Q13509+Q71U36+P04350+Q3ZCM7+P07437+P68363+Q9BQE3+Q6PEY2+Q13885+Q9BVA1+Q9BUF5); experiment: Inhibition of tubulin polymerization in human MGC-803 cells assessed as appearance of multinucleated cells at 10 to 40 nmol/L incubated for 48 hrs by DAPI staining based fluorescence microscopic analysis; type: cell-based; settings: dose 10-40 nmol/L
[6] = Toxicity in BALB/c-nude mouse xenografted with human MGC-803 cells assessed as alteration in liver tissue at 30 mg/kg/day, ip administered for 18 days by hematoxylin and eosin staining based analysis; type: organism-based; settings: in vivo, 432 h, time 18 day
MGC-803 [7] = experiment: Induction of cell cycle arrest in human MGC-803 cells assessed as increase in G2/M phase cells at 10 to 40 nmol/L incubated for 24 hrs by RNAse/propidium iodide staining based flow cytometry analysis relative to control; type: functional; settings: dose 10-40 nmol/L, at 10 to 40 nM
[8] = biological target: Tubulin beta (Homo sapiens) (UniProt P68371+Q9H4B7+Q13509+P04350+Q3ZCM7+P07437+Q13885+Q9BVA1+Q9BUF5+A6NNZ2); experiment: Binding affinity to beta-tubulin (unknown origin) colchicine binding site assessed as reduction in beta-tubulin-EBI adduct at 10 to 30 uM incubated for 2 hrs in presence of EBI by Western blotting; type: protein assay; settings: dose 10-30 µM
KYSE-30 = experiment: Antiproliferative activity against human KYSE-30 cells assessed as inhibition of cell growth incubated for 48 hrs by MTT assay; type: functional, cell-based; settings: KYSE-30, 48 h
MGC-803 [9] = experiment: Induction of apoptosis in human MGC-803 cells assessed as late apoptotic cells at 20 nmol/L incubated for 48 hrs by Annexin V-FITC/propidium iodide staining based flow cytometer analysis (reference value: 2.22 %); type: functional
HCT-116 = experiment: Antiproliferative activity against human HCT-116 cells assessed as inhibition of cell growth incubated for 48 hrs by MTT assay; type: functional, cell-based; settings: HCT-116, 48 h
MGC-803 [10] = experiment: Anti-migratory activity against human MGC-803 cells assessed as decrease in MMP-9 level at 10 to 40 nmol/L by Western blotting; type: functional, cell-based; settings: dose 10-40 nmol/L
MGC-803 [11] = experiment: Induction of cell cycle arrest in human MGC-803 cells at M phase assessed as increase in p-Histone H3 level at 10 to 40 nmol/L incubated for 48 hrs by Western blotting; type: functional, cell-based; settings: dose 10-40 nmol/L
[12] = Toxicity in BALB/c-nude mouse xenografted with human MGC-803 cells assessed as alteration in spleen tissue at 30 mg/kg/day, ip administered for 18 days by hematoxylin and eosin staining based analysis; type: organism-based; settings: in vivo, 432 h, time 18 day
MGC-803 [13] = experiment: Induction of apoptosis in human MGC-803 cells assessed as increase in cleaved PARP at 10 to 40 nmol/L incubated for 48 hrs by Western blotting; type: functional, cell-based; settings: dose 10-40 nmol/L
MGC-803 [14] = experiment: Induction of apoptosis in human MGC-803 cells assessed as decrease in Bcl-xL protein level at 10 to 40 nmol/L incubated for 48 hrs by Western blotting; type: functional, cell-based; settings: dose 10-40 nmol/L
Tubulin (Homo sapiens) [15] = biological target: T1, Tubulin (Homo sapiens); experiment: Inhibition of tubulin polymerization (unknown origin) at 1 to 3 uM by fluorescence plate reader analysis; type: protein-complex assay; settings: dose 1-3 µM

## COc1ccc2c(c1)CCCN2c1cc(=O)oc2ccccc12
MGC-803 [1]
  Activity: Active
MGC-803 [2]
  Activity: 1.3%
MGC-803 [3]
  Activity: 41.97%
MGC-803 [4]
  Activity: Active
Tubulin (Homo sapiens) [5]
  inhibition: Active
[6]
  Activity: Non-Toxic
MGC-803 [7]
  Activity: 18%
[8]
  Activity: Active
KYSE-30
  IC50: 190 nM
MGC-803 [9]
  Activity: 2.7%
HCT-116
  IC50: 81 nM
MGC-803 [10]
  Activity: Active
MGC-803 [11]
  Activity: Active
[12]
  Activity: Non-Toxic
MGC-803 [13]
  Activity: Active
MGC-803 [14]
  Activity: Active
Tubulin (Homo sapiens) [15]
  inhibition: Active
